The numbers were not newly measured in article PMC7774954, “Interactomic affinity profiling by holdup assay: Acetylation and distal residues impact the PDZome-binding specificity of PTEN phosphatase” (PLoS ONE, 2020), which cites them from elsewhere.

Where no end group is shown, it is not given here. The star is where a group is joined. Biotin = O=C1N[C@H]2[C@H](CS[C@H]2CCCCC(=O)*)N1; TTDS = NCCCOCCOCCOCCCNC(=O)CCC(=O)*

One data set concerns the target PARD3 PDZ 3. To be noted: FP, read-out: KD (affinity provided in the literature); cited from earlier work. The source says: (§1) Table 1 PDZ domains interactors for PTEN according to literature and the present study. | column: KD ^d
The target of a further data set is SNX27 PDZ 1. As to conditions: ITC, read-out: KD (affinity provided in the literature); cited from earlier work.
Text: as §1
On the technique in general: In ITC the heat of successive injections is recorded.

In another data set the target is MAST2 PDZ 1. As to conditions: ITC, read-out: KD (affinity provided in the literature); cited from earlier work.
Text: as §1

Another data set relates to PTPN13-4 domain. To be noted: cited from earlier work. The text has this:
It has been shown that the binding of the tumor suppressor PTEN, through its PBM, to PDZ dom ...

The term Kd denotes the constant that tells how readily two partners part at equilibrium. In the case of “PTEN: PTEN constructs of published studies; phosphatase and tensin homolog deleted on chromosome 10 ({Biotin-TTDS}-DEDQHTQITKV)”, the Kd was 19 µM on PARD3 PDZ 3, 38 µM at SNX27 PDZ 1 and 2 µM at MAST2 PDZ 1. In the data set on PTPN13-4 domain, the “interaction with PTPN13-4 (in words)” value is given as “absence of interaction”.
